Values of other authors as cited in publication PMC11923824, “Spider-derived peptide LCTx-F2 suppresses ASIC channels by occupying the acidic pocket” (The Journal of Biological Chemistry, 2025).

Columns and labels:
ASIC3 channel = conditions: nonproton ligand
Text: (§1) ASIC channels, particularly ASIC1a and ASIC3, are affected by certain cations like Ca^2+ and Zn^2+, which provides valuable insights for the development of novel drugs targeting ASICs. […] Depletion of insulin leads to an increase in ASIC1a channel expression in Chinese hamster ovary cells and neurons.

ASICs = conditions: no reference given
Text: as §1

humans = conditions: no reference given
Text: as §1

neuron = conditions: no reference given
Text: as §1

human ASIC3 channel = test system: human ASIC3 channel
Text: (§2) ASICs play a crucial role in pain perception among mammals ([39], [40]). Some animal toxins that are involved in prey capture and defense mechanisms act on ASICs ([26], [41]). For instance, the venom from Micrurus tener tener causes intense and persistent pain by enhancing the activation of ASICs through the MitTx toxin ([27]). ASICs are also considered important targets for pain relief, and certain chemicals that block their activity have shown strong analgesic effects in tests with living organisms ([42], [43]).

rASIC3 channel = biological target: T1, rASIC3 channel (Rattus norvegicus, UniProt O35240)
T1 construct: expressed in transfected cells; host or cells: human embryonic kidney 293 cells
T1 sequence (O35240 1-533): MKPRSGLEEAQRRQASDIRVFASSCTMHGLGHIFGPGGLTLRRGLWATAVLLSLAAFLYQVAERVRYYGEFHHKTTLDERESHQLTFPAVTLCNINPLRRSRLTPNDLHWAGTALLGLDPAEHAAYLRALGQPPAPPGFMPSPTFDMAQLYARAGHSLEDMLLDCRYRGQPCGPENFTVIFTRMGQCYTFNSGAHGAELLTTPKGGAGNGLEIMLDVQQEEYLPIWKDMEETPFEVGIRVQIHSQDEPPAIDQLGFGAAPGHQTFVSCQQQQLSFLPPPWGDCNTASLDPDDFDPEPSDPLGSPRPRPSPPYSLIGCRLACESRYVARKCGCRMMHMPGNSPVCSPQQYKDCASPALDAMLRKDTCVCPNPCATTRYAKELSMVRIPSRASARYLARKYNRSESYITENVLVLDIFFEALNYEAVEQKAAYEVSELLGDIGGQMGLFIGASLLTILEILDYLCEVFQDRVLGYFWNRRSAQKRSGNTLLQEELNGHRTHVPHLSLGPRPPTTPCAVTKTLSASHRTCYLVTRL
Text: as §2, with “Venom serves as a crucial weapon for animals in hunting prey and defending against enemies. Spider venom contains a variety of peptide toxins, some of which induce pain by targeting different ion channels ([29], [30], [31]), whereas others have analgesic properties and block the pain pathway ([32], [33], [34]). […] Derived from the spider Lycosa singoriensis, LCTx-F2 enhances ... || ASICs play” for “ASICs play”

rASIC2a channel = test system: rASIC2a channel
Text: Venom serves as a crucial weapon for animals in hunting prey and defending against enemies. Spider venom contains a variety of peptide toxins, some of which induce pain by targeting different ion channels ([29], [30], [31]), whereas others have analgesic properties and block the pain pathway ([32], [33], [34]). […] Derived from the spider Lycosa singoriensis, LCTx-F2 enhances ...

ASIC1a channel = test system: ASIC1a channel
Text: ASIC channels, particularly ASIC1a and ASIC3, are affected by certain cations like Ca^2+ and Zn^2+, which provides valuable insights for the development of novel drugs targeting ASICs. […] Depletion of insulin leads to an increase in ASIC1a channel expression in Chinese hamster ovary cells and neurons. […] Spider venom contains a variety of peptide toxins, some of which induce pain by targeting different ion channels ([29], [30], [31]), whereas others have analgesic properties and block the pain pathway ([32], [33], [34]). […] Derived from the spider Lycosa singoriensis, LCTx-F2 enhances ...

ischemic stroke = test system: ischemic stroke
Text: as §1

[1] = test system: ASICs in dorsal root ganglion neurons; conditions: no reference given
Text: as §1

hASIC1a channel = conditions: interacts with helix α5 of the thumb domain
[2] = test system: ASIC1a channel in Xenopus oocytes; conditions: no reference given
Text: as §1

For `Cc1nc(NC(=N)N)nc2ccccc12` [2-guanidine-4-methylquinazoline], the “activation of ASIC3” value (ASIC3 channel) is given as “activated”.

In the case of `N=C(N)NC(=O)c1nc(Cl)c(N)nc1N` [Amiloride], the “effect on ASICs, amiloride” value (ASICs) is given as “can suppress most ASICs”, the “analgesic effect in humans” value (humans) is given as “has shown analgesic effects in humans” and the “protection against acidosis-induced neuron damage” value (neuron) is given as “provides protection against acidosis-induced neuron damage”.

For APETx2, the “inhibition of hASIC3 (in words)” value (human ASIC3 channel) is listed as “inhibit both rASIC3 and hASIC3 channels”, the IC50 (human ASIC3 channel; read-out: IC50 against human ASIC3 channel) is listed as 175 nM and the “effect on rASIC3 (in words)” value (rASIC3 channel) is listed as “inhibit both rASIC3 and hASIC3 channels”.

For PcTx1, the “effect on rASIC2a (in words)” value (rASIC2a channel) is given as “not the rASIC2a or rASIC3 channels”, the “effect on ASIC1a (in words)” value (ASIC1a channel) is given as “selectively inhibit the ASIC1a channel” and the “site of action on ASIC1a” value (ASIC1a channel) is given as “inserts into the acidic pocket of ASIC1a channels”. For the same molecule, the “neuroprotection in ischemic stroke” value (ischemic stroke) was “exhibits neuroprotection”.

In the case of “bradykinin: proinflammatory mediator (RPPGFSPFR; Bradykinin; UniProt P01042 381-389, looked up)”, the “effect on ASIC expression” value [1] is given as “increase the expression of ASICs”.

In the case of “mambalgin-1: snake toxin mambalgin-1 (LKCYQHGKVVTCHRDMKFCYHNTGMPFRNLKLILQGCSSSCSETENNKCCSTDRCNK; UniProt P0DKR6 22-78, looked up)”, the “effect on proton sensitivity of hASIC1a” value (hASIC1a channel) is given as “reduces the proton sensitivity”.

For “nerve growth factor: proinflammatory mediator”, the “effect on ASIC expression” value [1] is given as “increase the expression of ASICs”.

B1: matriptase: protease cleaving ASIC1a (protein, UniProt Q9Y5Y6 1-855, looked up)
Suppressor of tumorigenicity …: MGSDRARKGGGGPKDFGAGLKYNSRHEKVNGLEEGVEFLPVNNVKKVEKHGPGRWVVLAAVLIGLLLVLLGIGFLVWHLQYRDVRVQKVFNGYMRITNENFVDAYENSNSTEFVSLASKVKDALKLLYSGVPFLGPYHKESAVTAFSEGSVIAYYWSEFSIPQHLVEEAERVMAEERVVMLPPRARSLKSFVVTSVVAFPTDSKTVQRTQDNSCSFGLHARGVELMRFTTPGFPDSPYPAHARCQWALRGDADSVLSLTFRSFDLASCDERGSDLVTVYNTLSPMEPHALVQLCGTYPPSYNLTFHSSQNVLLITLITNTERRHPGFEATFFQLPRMSSCGGRLRKAQGTFNSPYYPGHYPPNIDCTWNIEVPNNQHVKVRFKFFYLLEPGVPAGTCPKDYVEINGEKYCGERSQFVVTSNSNKITVRFHSDQSYTDTGFLAEYLSYDSSDPCPGQFTCRTGRCIRKELRCDGWADCTDHSDELNCSCDAGHQFTCKNKFCKPLFWVCDSVNDCGDNSDEQGCSCPAQTFRCSNGKCLSKSQQCNGKDDCGDGSDEASCPKVNVVTCTKHTYRCLNGLCLSKGNPECDGKEDCSDGSDEKDCDCGLRSFTRQARVVGGTDADEGEWPWQVSLHALGQGHICGASLISPNWLVSAAHCYIDDRGFRYSDPTQWTAFLGLHDQSQRSAPGVQERRLKRIISHPFFNDFTFDYDIALLELEKPAEYSSMVRPICLPDASHVFPAGKAIWVTGWGHTQYGGTGALILQKGEIRVINQTTCENLLPQQITPRMMCVGFLSGGVDSCQGDSGGPLSSVEADGRIFQAGVVSWGDGCAQRNKPGVYTRLPLFRDWIKENTGV
For B1, the “effect of cleavage on ASIC1a current” value [2] is given as “reduces its current”.
